Paper PMC12549899 (Nature Communications, 2025)
Values joined by “and” are separate entries in the source; they are usually repeats but may differ in a detail not shown here. Equal values may be shown once.

Target: T1, DrOTOP1 L385W (Danio rerio, UniProt Q7ZWK8, L385W)
T1 construct: A previously generated codon-optimized full-length DrOTOP1[8]; (UniProt: Q7ZWK8) construct; expressed in transfected cells; host or cells: HEK-293 (CRL-1573, ATCC)
T1 sequence (Q7ZWK8 1-586 L385W): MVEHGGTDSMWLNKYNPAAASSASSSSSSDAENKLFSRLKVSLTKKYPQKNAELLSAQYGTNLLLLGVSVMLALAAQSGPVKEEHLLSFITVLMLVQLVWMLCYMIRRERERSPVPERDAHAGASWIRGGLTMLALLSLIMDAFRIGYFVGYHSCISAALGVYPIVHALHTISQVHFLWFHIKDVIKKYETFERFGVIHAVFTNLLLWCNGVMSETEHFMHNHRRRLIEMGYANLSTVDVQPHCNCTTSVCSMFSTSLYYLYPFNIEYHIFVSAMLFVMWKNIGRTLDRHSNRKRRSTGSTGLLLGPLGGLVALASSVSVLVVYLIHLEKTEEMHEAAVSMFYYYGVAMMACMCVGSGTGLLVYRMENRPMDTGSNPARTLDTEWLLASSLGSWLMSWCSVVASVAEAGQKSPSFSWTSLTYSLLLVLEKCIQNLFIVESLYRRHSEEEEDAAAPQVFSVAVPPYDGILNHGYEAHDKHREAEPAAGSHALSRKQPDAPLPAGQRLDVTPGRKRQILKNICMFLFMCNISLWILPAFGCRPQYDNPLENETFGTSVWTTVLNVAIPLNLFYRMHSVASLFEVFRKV
Assay: Whole-cell patch-clamp, inhibition of acid-evoked currents, DrOTOP1 L385W
Type: cell-based, zebrafish (Danio rerio)
Settings: single cells or mean; for Inhibition of currents: 10 µM
Excerpt: To functionally test the significance of the two binding sites identified by cryo-EM, we generated point mutations of DrOTOP1 using the binding poses and conformational changes observed in DrOTOP1_C2.2 to guide our mutations. As per the binding pose that best fits our cryo-EM density, C2.2 forms the following interactions in the outer site: hydrophobic packing against many non-polar residues W126, G130, M133, L134, F271, F570, and M573, and π-stacking with W532 (Fig. 5A). In addition, C2.2 could potentially form H-bonds with E267, if the sidechain is protonated or a water bridge is present, and with H574 if it moves closer (Fig. 5A). Likewise, C2.36 presents a heterocyclic nitrogen that can potentially form a H-bond with E267, similarly, provided a protonation or water bridge is present (Fig. 5B). In addition, C2.36 forms a T-shaped π-stacking interaction with H574, whose sidechain has rotated 90 degrees (compared to DrOTOP1_apo), presumably to accommodate the interaction (Fig. 5B). Considering other inhibitors discovered from the second round of screening, many contain functional groups like the carbonyl groups of Group 1 molecules and the heterocyclic nitrogen atoms of Group 2 molecules (Supplementary Fig. 3E), that can potentially form similar H-bonds with E267 as C2.2 and C2.36, assuming the binding modes are similar. In the central site, C2.2 binds with the following interactions: hydrophobic packing with residues V201, F271, A274, V278, and A388, π-stacking with F277, and H-bonding with E384 (Fig. 5C).
We next tested mutations of the central site (L205W, A274W, F277A, E384A L385W, A388W). V201W and S389W, two additional central site mutations, were excluded from the study due to complete loss of channel activity. […]
Whole-cell patch-clamp recording was performed as previously described[6],[22],[25]. Recordings were made with an Axopatch 200B amplifier, digitized with a Digidata 1322a 16-bit data acquisition system, acquired with pClamp 8.2 and analyzed with Clampfit 10 (Molecular Devices). […]

C=C(C)COc1ccccc1NC(=O)c1nc[nH]c1C [C2.2]
Inhibition of currents (mean): 74.03%
Inhibition of currents (single cells): 74.8228% and 76.1135% and 70.5882% and 77.6399%
inhibition at 10 µM: 71%
